# Experimental data as given in PubChem BioAssay (NCI).
#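 Growth conditions: 96-well plates. Treatment: test compound, 48 hours, 5 concentrations. Analysis: linear interpolation between bracketing concentrations; unreached endpoints set to highest concentration. TGI is the concentration that stops growth completely.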
# Assays:
# Assay in all cases: inhibition of tumour cell growth, NCI panel, 48 h
# [1] = test system: 786-0 renal
# [2] = test system: A498 renal
# [3] = test system: A549 NSCLC
# [4] = test system: ACHN renal
# [5] = test system: CAKI-1 renal
# [6] = test system: CCRF-CEM leukemia
# [7] = test system: COLO 205 colon
# [8] = test system: DU-145 prostate
# [9] = test system: EKVX NSCLC
# [10] = test system: HCC-2998 colon
# [11] = test system: HCT-116 colon
# [12] = test system: HCT-15 colon
# [13] = test system: HL-60(TB) leukemia
# [14] = test system: HOP-62 NSCLC
# [15] = test system: HOP-92 NSCLC
# [16] = test system: HS 578T breast
# [17] = test system: HT29 colon
# [18] = test system: IGROV1 ovarian
# [19] = test system: K-562 leukemia
# [20] = test system: KM12 colon
# [21] = test system: LOX IMVI melanoma
# [22] = test system: M14 melanoma
# [23] = test system: MALME-3M melanoma
# [24] = test system: MCF7 breast
# [25] = test system: MDA-MB-231 breast
# [26] = test system: MDA-MB-435
# [27] = test system: MDA-N
# [28] = test system: MOLT-4 leukemia
# [29] = test system: NCI-H226 lung
# [30] = test system: NCI-H23 lung
# [31] = test system: NCI-H460 lung
# [32] = test system: NCI-H522 lung
# [33] = test system: NCI/ADR-RES ovarian
# [34] = test system: OVCAR-3 ovarian
# [35] = test system: OVCAR-4 ovarian
# [36] = test system: OVCAR-5 ovarian
# [37] = test system: OVCAR-8 ovarian
# [38] = test system: PC-3 prostate
# [39] = test system: RPMI-8226 leukemia
# [40] = test system: RXF 393 renal
# [41] = test system: SF-268 CNS
# [42] = test system: SF-295 CNS
# [43] = test system: SF-539 CNS
# [44] = test system: SK-MEL-2 melanoma
# [45] = test system: SK-MEL-28 melanoma
# [46] = test system: SK-MEL-5 melanoma
# [47] = test system: SK-OV-3 ovarian
# [48] = test system: SN12C renal
# [49] = test system: SNB-19 CNS
# [50] = test system: SNB-75 CNS
# [51] = test system: SR leukemia
# [52] = test system: SW-620 colon
# [53] = test system: T-47D breast
# [54] = test system: TK-10 renal
# [55] = test system: U251 CNS
# [56] = test system: UACC-257 melanoma
# [57] = test system: UACC-62 melanoma
# [58] = test system: UO-31 renal
compound,measurement,setting,value
COc1cc(C(C[N+](=O)[O-])SC(C)=O)ccc1OCc1ccccc1 (stereo not drawn),TGI,[1],3.74 µM
same,TGI,[2],15.4 µM
same,TGI,[3],25.4 µM
same,TGI,[4],24.7 µM
same,TGI,[5],27.7 µM
same,TGI,[6],> 100 µM
same,TGI,[7],13 µM
same,TGI,[8],27.1 µM
same,TGI,[9],37.9 µM
same,TGI,[10],46.6 µM
same,TGI,[11],8.26 µM
same,TGI,[12],9.11 µM
same,TGI,[13],1.57 µM
same,TGI,[14],14.3 µM
same,TGI,[15],36.2 µM
same,TGI,[16],12.1 µM
same,TGI,[17],> 20.9 µM
same,TGI,[18],7.36 µM
same,TGI,[19],5.45 µM
same,TGI,[20],14 µM
same,TGI,[21],3.35 µM
same,TGI,[22],11.2 µM
same,TGI,[23],17.5 µM
same,TGI,[24],10.7 µM
same,TGI,[25],13.3 µM
same,TGI,[26],10 µM
same,TGI,[27],8.54 µM
same,TGI,[28],5.52 µM
same,TGI,[29],18.1 µM
same,TGI,[30],12.3 µM
same,TGI,[31],25.1 µM
same,TGI,[32],13.9 µM
same,TGI,[33],> 38.3 µM
same,TGI,[34],7.87 µM
same,TGI,[35],27.7 µM
same,TGI,[36],29.6 µM
same,TGI,[37],13.6 µM
same,TGI,[38],17.4 µM
same,TGI,[39],4.61 µM
same,TGI,[40],3.18 µM
same,TGI,[41],> 100 µM
same,TGI,[42],10.3 µM
same,TGI,[43],4.87 µM
same,TGI,[44],23.4 µM
same,TGI,[45],6.79 µM
same,TGI,[46],21.9 µM
same,TGI,[47],29.6 µM
same,TGI,[48],15.7 µM
same,TGI,[49],20.9 µM
same,TGI,[50],32.4 µM
same,TGI,[51],4.86 µM
same,TGI,[52],10.6 µM
same,TGI,[53],54.5 µM
same,TGI,[54],14.7 µM
same,TGI,[55],22.7 µM
same,TGI,[56],10.5 µM
same,TGI,[57],8.68 µM
same,TGI,[58],10.3 µM
C[N+]12CCN(c3ccccc31)c1ccccc12,TGI,[2],> 10 µM
same,TGI,[3],> 10 µM
same,TGI,[4],> 10 µM
same,TGI,[5],> 10 µM
same,TGI,[7],> 10 µM
same,TGI,[8],> 10 µM
same,TGI,[9],> 10 µM
same,TGI,[12],> 10 µM
same,TGI,[15],> 10 µM
same,TGI,[17],> 10 µM
same,TGI,[18],> 10 µM
same,TGI,[20],> 10 µM
same,TGI,[22],> 10 µM
same,TGI,[25],> 10 µM
same,TGI,[26],> 10 µM
same,TGI,[27],8.56 µM
same,TGI,[30],> 10 µM
same,TGI,[33],> 10 µM
same,TGI,[34],> 10 µM
same,TGI,[35],> 10 µM
same,TGI,[36],> 10 µM
same,TGI,[37],> 10 µM
same,TGI,[38],> 10 µM
same,TGI,[40],> 10 µM
same,TGI,[41],> 10 µM
same,TGI,[42],> 10 µM
same,TGI,[45],> 10 µM
same,TGI,[46],5.42 µM
same,TGI,[48],> 10 µM
same,TGI,[49],> 10 µM
same,TGI,[50],> 10 µM
same,TGI,[52],> 10 µM
same,TGI,[54],> 10 µM
same,TGI,[55],> 10 µM
same,TGI,[58],> 10 µM
